Assays:
[1] = Gastrointestinal tolerability of sodium salt capsules (certain studies); assay type: in vivo; conditions: solid dosage form (capsules)
Protocol: (§1) Furthermore, the non-hygroscopic nature of the acid form makes it desirable as active pharmaceutical ingredient. To further protect against any possible gastrointestinal intolerance that could result from the acid form, the tablets are enteric-coated and a modified-release agent is added to control any rapid release of the drug in the stomach and the intestine, respectively.

[2] = Example 7 Part I: single rising oral dose pharmacokinetics of NC-758 (Table 3 tablet), plasma 3-APS by LC-MS/MS; assay type: in vivo, human; conditions: for AUC(0-inf) / Tmax / Cmax / AUC(0-t): human, plasma, fasted; for AUC(0-inf) / Cmax / AUC(0-t): mean; for Tmax: median; for Cmax / AUC(0-t): male, po; for AUC(0-t): read-out: AUC0-Tlast
Text: (§2) In the following examples and elsewhere herein, terms are as defined below. The pharmacokinetic parameters were derived by non-compartmental analysis using WinNonlin° (Pharsight Corporation, Mountain View, Calif.) or SAS® for Windows® (SAS Institute Inc., Cary, N.C.).
Part I—The pharmacokinetic profile and the effect of food on single rising oral doses of 3-APS free acid (modified-release enteric-coated tablet, as described in Table 3 above, hereinafter “NC-758”) in healthy male young (18-45 years) volunteers is determined. For doses at multiples of 100 mg, multiple 100 mg tables are administered. The pharmacokinetics of a single oral dose of NC-758 is also determined in a group of healthy male elderly (≧55 years old) volunteers. The test is a randomized, double-blind, placebo-controlled study to assess the pharmacokinetic profile of 4 single rising oral doses of NC-758 in healthy young (18-45 years) male subjects. Blood samples are collected during 24 h following dosing. Plasma concentrations of 3-APS are determined using a validated LC-MS/MS method.

[3] = Example 7 Part II: food effect on single 200 mg oral dose pharmacokinetics (Table 3 formulation); assay type: in vivo, human; conditions: 200 mg single oral, young male
Protocol: as §2
Following single oral dosing of 200 mg 3-APS (modified-release coated formulation as described in Table 3 above) to young male subjects (aged between 18 and 45 years) under fasted and fed (high fat) conditions, maximum plasma concentrations of 3-APS are attained at 5 and 13.5 h post-dose under fasted and fed conditions, respectively (Table 9A).

[4] = Example 8 Part I: multiple rising oral dose pharmacokinetics of NC-758; assay type: in vivo; conditions: human, plasma, fasted; for AUC(0-inf) / AUC(0-t) / Cmax: mean; for AUC(0-t): read-out: AUC0-12h; for Tmax: median
Protocol: as §2
For doses at multiples of 100 mg, multiple 100 mg tables are administered. […] In Part I, 3-APS is administered as a single dose on Days 1 and 12 and on Days 2-11, twice daily at 12 hour intervals.

[5] = Example 10: 3-APS concentration in cerebrospinal fluid (CSF) of AD patients; assay type: in vivo, human; conditions: additional tests, treated patients
Text: (Patients having a CSF level below the lower limit of quantitation of the assay are considered as zero.) CSF concentrations of 3-APS on Day 2 of Week 12 after twice daily oral administration for 12 weeks are as follows: […]

[6] = Example 9 Part I: single oral dose pharmacokinetics of NC-758-1 (Table 5 tablet) in healthy elderly; assay type: in vivo; conditions: both sexes, human, plasma, elderly male and female, fasted; for AUC(0-inf) / AUC(0-t) / Cmax: mean; for Tmax: median
Text: as §2
Part I—The pharmacokinetic profile and the effect of food on single oral doses of 3-APS free acid (modified-release enteric-coated tablet as described in Table 5 above, hereinafter “NC-758-1“) in healthy male and female elderly (≧55 years) volunteers. For doses at multiples of 50 mg, multiple 50 mg tables are administered. The test is an open label, three-period crossover study to assess the pharmacokinetic profile of 3 single oral doses of NC-758-1 in healthy elderly (≧55 years) male and female subjects. The blood samples are collected during 24 h following dosing. Plasma concentrations of 3-APS are determined using a validated LC-MS/MS method.

Aβ42 = molecular target: T1, Aβ42 (Homo sapiens, UniProt P05067); assay: Example 11 additional tests: CSF Aβ42 levels and Aβ42/Aβ40 ratio in treated patients; assay type: in vivo
T1 construct: from tissue; host or cells: cerebrospinal fluid of AD patients treated with 3-APS

[7] = Example 13: single 150 mg (3 × 50 mg) oral dose pharmacokinetics in healthy elderly male volunteers, fasting and fed; assay type: in vivo, human; conditions: 150 mg (3 × 50 mg) single oral, Fasting Conditions, mean
Protocol: as §2
A single dose study of 3-APS Modified-Release Coated Tablets (of Table 5 above) in healthy elderly male volunteers following a 150 mg oral dose administration under fed conditions is conducted. For the 150 mg dose, three 50 mg tables are administered.

[8] = Example 9 Part II: food effect on single 100 mg oral dose pharmacokinetics in elderly (Table 5 formulation); assay type: in vivo; conditions: both sexes, human, plasma; 100 mg single oral, elderly male and female, Fasting Arm; median
Protocol: as §2
Following single oral dosing of 100 mg 3-APS (modified-release coated formulation modified-release enteric-coated tablet as described in Table 5 above) to elderly (55 years or older) male and female subjects under fasted and fed (high fat) conditions, maximum plasma concentrations of 3-APS are attained at 5 and 10.5 h post-dose under fasted and fed conditions, respectively (Table 12A below and FIG. 5 showing the Mean Plasma Concentration-Time Profiles of 3-APS under Fasted and Fed Conditions following Single Oral Administration of 100 mg to Elderly Male and Female Subjects).

[9] = dog, in vivo
Protocol: as §1

[10] = 100 mg single oral, young (18-45 years) male
[11] = 200 mg single oral, young (18-45 years) male
[12] = 300 mg single oral, young (18-45 years) male
[13] = 100 mg, 100 mg single oral, young (18-45 years) male
[14] = 200 mg, 200 mg single oral, elderly (>55 years) male
[15] = 200 mg, 200 mg single oral, young (18-45 years) male
[16] = 300 mg, 300 mg single oral, young (18-45 years) male
[17] = 400 mg, 400 mg single oral, young (18-45 years) male
[18] = both sexes, 200 mg, 200 mg BID, Day 1, elderly (≧55 years) male and female
[19] = both sexes, 200 mg, 200 mg BID, Day 12, elderly (≧55 years) male and female
[20] = male, 100 mg, 100 mg BID, Day 1, young (18-45 years) male
[21] = male, 100 mg, 100 mg BID, Day 12, young (18-45 years) male
[22] = male, 200 mg, 200 mg BID, Day 1, young (18-45 years) male
[23] = male, 200 mg, 200 mg BID, Day 12, young (18-45 years) male

T1 sequence (P05067 672-713 limits assumed): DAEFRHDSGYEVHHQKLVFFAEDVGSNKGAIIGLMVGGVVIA

NCCCS(=O)(=O)[O-].[Na+] [3-amino-1-propanesulfonic acid, sodium salt]
gastrointestinal symptoms (i.e. nausea and vomiting) [1]: associated with gastrointestinal symptoms

NCCCS(=O)(=O)O [3-APS, 3-amino-1-propanesulfonic acid]
AUC0-t greater in elderly subjects compared to young subjects ([2]; 200 mg dose, Tables 9 and 10): approximately 70% | Cmax greater in elderly subjects compared to young subjects ([2]; 200 mg dose, Tables 9 and 10): approximately 70% | AUC(0-inf) [2, 10]: 1420 ng·h/mL | Tmax [2, 10]: 5 h | AUC(0-inf) [2, 11]: 2490 ng·h/mL | Tmax [2, 11]: 5 h | AUC(0-inf) [2, 12]: 4460 ng·h/mL | Tmax [2, 12]: 5 h | Tmax ([2]; 400 mg single oral, young (18-45 years) male): 2 h | Cmax [2, 13]: 410 ng/mL | AUC(0-t) [2, 13]: 1390 ng·h/mL | Cmax [2, 14]: 1090 ng/mL | AUC(0-t) [2, 14]: 4880 ng·h/mL | Cmax [2, 15]: 661 ng/mL | AUC(0-t) [2, 15]: 2900 ng·h/mL | Cmax [2, 16]: 904 ng/mL | AUC(0-t) [2, 16]: 4000 ng·h/mL | Cmax [2, 17]: 5370 ng/mL | AUC(0-t) [2, 17]: 16000 ng·h/mL | Cmax ([3]; Fed Arm (high fat), mean): 631 ng/mL | AUC(0-t) ([3]; human, plasma, Fasting Arm, mean, read-out: AUC0-Tlast): 2200 ng·h/mL | Tmax ([3]; human, plasma, Fasting Arm, median): 5 h | AUC(0-inf) ([3]; human, plasma, Fed Arm (high fat), mean): 4500 ng·h/mL | AUC(0-inf) ([4]; both sexes, 200 mg BID, Day 1, elderly (≧55 years) male and female): 5500 ng·h/mL | AUC(0-t) ([4]; both sexes, 200 mg BID, Day 12, elderly (≧55 years) male and female): 6290 ng·h/mL | Cmax [4, 18]: 897 ng/mL | AUC(0-t) [4, 18]: 5020 ng·h/mL | Tmax [4, 18]: 6 h | Cmax [4, 19]: 880 ng/mL | Tmax [4, 19]: 5 h | AUC(0-inf) ([4]; 100 mg BID, Day 1, young (18-45 years) male): 1020 ng·h/mL | AUC(0-inf) ([4]; 200 mg BID, Day 1, young (18-45 years) male): 3210 ng·h/mL | Cmax [4, 20]: 282 ng/mL | AUC(0-t) [4, 20]: 1330 ng·h/mL | Tmax [4, 20]: 6 h | Cmax [4, 21]: 256 ng/mL | AUC(0-t) [4, 21]: 1430 ng·h/mL | Tmax [4, 21]: 2.5 h | Cmax [4, 22]: 517 ng/mL | AUC(0-t) [4, 22]: 2860 ng·h/mL | Tmax [4, 22]: 4 h | Cmax [4, 23]: 581 ng/mL | AUC(0-t) [4, 23]: 4150 ng·h/mL | Tmax [4, 23]: 4 h | crossing of the blood/brain barrier [5]: crossed the blood/brain barrier | AUC(0-inf) ([6]; 50 mg single oral): 1570 ng·h/mL | AUC(0-t) ([6]; 50 mg single oral): 1540 ng·h/mL | Cmax ([6]; 50 mg single oral): 469 ng/mL | Tmax ([6]; 50 mg single oral): 5 h | AUC(0-inf) ([6]; 100 mg single oral): 2870 ng·h/mL | AUC(0-t) ([6]; 100 mg single oral): 3130 ng·h/mL | Cmax ([6]; 100 mg single oral): 745 ng/mL | Tmax ([6]; 100 mg single oral): 5 h | AUC(0-inf) ([6]; 150 mg single oral): 4500 ng·h/mL | AUC(0-t) ([6]; 150 mg single oral): 5300 ng·h/mL | Tmax ([6]; 150 mg single oral): 5 h | ratio of Aβ42/Aβ40 (Aβ42; CSF, treated patients (FIGS. 2, 3 and 4)): reduced | CSF Aβ42 levels (Aβ42; treated patients (FIG. 1)): reduced | AUC0-Tlast [7]: 3211 ng·h/mL | AUC∞ [7]: 3284 ng·h/mL | Tmax [8]: 5 h | tolerability [9]: better tolerated than the sodium salt form
